In ChEMBL document CHEMBL5653615 (J Biol Chem, 2013):

What was measured:
[1] = target: T1, Inhibitor of nuclear factor kappa-B kinase subunit beta (Homo sapiens) (UniProt O14920); settings: dose 1.82 nM
T1 sequence (whole entry): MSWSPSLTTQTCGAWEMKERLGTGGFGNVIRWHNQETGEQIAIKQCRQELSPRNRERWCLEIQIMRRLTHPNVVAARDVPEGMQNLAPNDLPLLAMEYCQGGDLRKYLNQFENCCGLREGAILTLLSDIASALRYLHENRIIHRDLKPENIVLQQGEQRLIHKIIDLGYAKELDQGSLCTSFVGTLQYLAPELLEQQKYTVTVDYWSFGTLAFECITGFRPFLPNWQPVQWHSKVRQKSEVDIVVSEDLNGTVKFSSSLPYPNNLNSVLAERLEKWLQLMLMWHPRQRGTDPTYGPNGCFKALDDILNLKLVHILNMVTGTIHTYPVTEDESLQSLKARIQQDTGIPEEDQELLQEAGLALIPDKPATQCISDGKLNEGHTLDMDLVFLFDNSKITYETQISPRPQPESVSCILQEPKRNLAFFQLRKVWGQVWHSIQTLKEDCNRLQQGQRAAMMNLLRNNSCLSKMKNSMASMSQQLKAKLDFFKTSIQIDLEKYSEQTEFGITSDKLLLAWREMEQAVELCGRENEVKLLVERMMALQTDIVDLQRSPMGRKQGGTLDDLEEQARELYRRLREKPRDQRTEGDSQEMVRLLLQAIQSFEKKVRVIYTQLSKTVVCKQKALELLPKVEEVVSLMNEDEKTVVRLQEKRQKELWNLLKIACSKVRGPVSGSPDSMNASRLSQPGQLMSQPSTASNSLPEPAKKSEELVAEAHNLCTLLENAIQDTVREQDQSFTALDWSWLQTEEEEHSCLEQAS
Description: Inhibition of human IKKb at 1.82 nM by HotSpot assay relative to control

[2] = target: Tyrosine-protein kinase Blk (Homo sapiens) (UniProt P51451); experiment: Inhibition of human BLK at 1.82 nM by HotSpot assay relative to control
[3] = target: Serine/threonine-protein kinase WNK3 (Homo sapiens) (UniProt Q9BYP7); experiment: Inhibition of human WNK3 at 1.82 nM by HotSpot assay relative to control
[4] = target: Interleukin-1 receptor-associated kinase 1 (Homo sapiens) (UniProt P51617); experiment: Inhibition of human IRAK1 at 1.82 nM by HotSpot assay relative to control
[5] = target: Tyrosine-protein kinase ABL2 (Homo sapiens) (UniProt P42684); experiment: Inhibition of human ABL2 at 1.82 nM by HotSpot assay relative to control
[6] = target: Vascular endothelial growth factor receptor 1 (Homo sapiens) (UniProt P17948); experiment: Inhibition of human FLT1 at 18.6 nM by HotSpot assay relative to control
[7] = target: T2, cGMP-dependent protein kinase 2 (Homo sapiens) (UniProt Q13237); experiment: Inhibition of human PRKG2 at 18.6 nM by HotSpot assay relative to control
T2 sequence (whole entry): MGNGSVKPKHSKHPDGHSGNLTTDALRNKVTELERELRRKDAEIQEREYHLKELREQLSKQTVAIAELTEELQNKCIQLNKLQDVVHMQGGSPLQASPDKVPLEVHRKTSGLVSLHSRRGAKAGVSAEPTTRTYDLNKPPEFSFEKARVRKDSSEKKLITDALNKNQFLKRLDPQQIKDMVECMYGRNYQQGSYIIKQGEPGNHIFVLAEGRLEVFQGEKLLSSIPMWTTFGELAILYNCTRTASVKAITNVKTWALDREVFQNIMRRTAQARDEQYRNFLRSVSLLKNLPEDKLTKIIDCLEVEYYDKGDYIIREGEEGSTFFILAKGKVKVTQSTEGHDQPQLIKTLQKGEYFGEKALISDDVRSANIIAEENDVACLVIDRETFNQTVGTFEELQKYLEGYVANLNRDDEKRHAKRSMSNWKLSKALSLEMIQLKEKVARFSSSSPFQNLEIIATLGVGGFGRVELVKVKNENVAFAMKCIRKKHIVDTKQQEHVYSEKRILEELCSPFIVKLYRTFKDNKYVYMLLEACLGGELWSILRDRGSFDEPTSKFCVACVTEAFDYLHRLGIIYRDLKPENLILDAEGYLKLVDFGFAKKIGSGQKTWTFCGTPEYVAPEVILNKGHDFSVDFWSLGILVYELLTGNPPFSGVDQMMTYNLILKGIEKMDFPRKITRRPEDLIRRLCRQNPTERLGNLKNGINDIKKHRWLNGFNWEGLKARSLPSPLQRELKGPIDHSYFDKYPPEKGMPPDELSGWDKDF

[8] = target: T3, Serine/threonine-protein kinase D3 (Homo sapiens) (UniProt O94806); experiment: Inhibition of human PRKD3 at 18.6 nM by HotSpot assay relative to control
T3 sequence (whole entry): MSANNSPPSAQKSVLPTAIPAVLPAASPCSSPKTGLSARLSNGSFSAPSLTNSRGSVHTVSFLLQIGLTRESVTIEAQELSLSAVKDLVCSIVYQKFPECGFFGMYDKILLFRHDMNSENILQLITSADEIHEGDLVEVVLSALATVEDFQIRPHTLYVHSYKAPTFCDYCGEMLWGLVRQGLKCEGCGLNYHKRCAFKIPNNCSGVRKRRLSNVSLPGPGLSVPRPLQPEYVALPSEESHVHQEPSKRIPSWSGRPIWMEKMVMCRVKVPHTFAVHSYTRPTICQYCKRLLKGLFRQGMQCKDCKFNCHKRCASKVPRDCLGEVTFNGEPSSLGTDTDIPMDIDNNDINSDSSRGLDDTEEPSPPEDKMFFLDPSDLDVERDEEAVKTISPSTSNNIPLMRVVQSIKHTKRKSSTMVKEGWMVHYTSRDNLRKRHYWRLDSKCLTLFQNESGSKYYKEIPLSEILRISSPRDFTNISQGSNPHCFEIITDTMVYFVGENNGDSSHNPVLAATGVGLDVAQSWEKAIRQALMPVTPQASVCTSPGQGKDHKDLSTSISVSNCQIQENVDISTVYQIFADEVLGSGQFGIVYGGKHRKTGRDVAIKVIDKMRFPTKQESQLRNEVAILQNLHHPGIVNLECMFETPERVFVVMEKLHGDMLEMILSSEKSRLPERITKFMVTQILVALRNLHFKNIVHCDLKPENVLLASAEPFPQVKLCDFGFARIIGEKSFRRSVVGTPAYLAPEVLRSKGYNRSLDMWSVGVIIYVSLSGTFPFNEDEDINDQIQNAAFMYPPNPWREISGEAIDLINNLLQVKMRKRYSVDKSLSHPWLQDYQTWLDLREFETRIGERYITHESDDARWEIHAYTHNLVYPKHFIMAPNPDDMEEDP

[9] = target: Misshapen-like kinase 1 (Homo sapiens) (UniProt Q8N4C8); experiment: Inhibition of human MINK1 at 18.6 nM by HotSpot assay relative to control
[10] = target: Receptor tyrosine-protein kinase erbB-4 (Homo sapiens) (UniProt Q15303); experiment: Inhibition of human ERBB4 at 18.6 nM by HotSpot assay relative to control

Tyrosine-protein kinase Blk (Homo sapiens), sequence (P51451 2-505 limits assumed): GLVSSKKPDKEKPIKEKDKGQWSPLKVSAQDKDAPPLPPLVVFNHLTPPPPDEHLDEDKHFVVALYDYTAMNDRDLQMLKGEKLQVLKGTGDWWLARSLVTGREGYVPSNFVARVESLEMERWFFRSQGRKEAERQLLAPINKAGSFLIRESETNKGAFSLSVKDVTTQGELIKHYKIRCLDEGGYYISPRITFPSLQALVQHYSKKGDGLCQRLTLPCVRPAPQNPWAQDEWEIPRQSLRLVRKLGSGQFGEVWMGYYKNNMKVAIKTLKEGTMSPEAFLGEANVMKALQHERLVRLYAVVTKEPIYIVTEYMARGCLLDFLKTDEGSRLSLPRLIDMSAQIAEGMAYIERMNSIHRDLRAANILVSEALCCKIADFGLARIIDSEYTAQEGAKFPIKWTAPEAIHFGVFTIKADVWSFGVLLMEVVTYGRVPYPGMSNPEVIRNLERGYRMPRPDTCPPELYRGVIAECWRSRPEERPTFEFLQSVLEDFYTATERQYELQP
Serine/threonine-protein kinase WNK3 (Homo sapiens), sequence (Q9BYP7 whole entry): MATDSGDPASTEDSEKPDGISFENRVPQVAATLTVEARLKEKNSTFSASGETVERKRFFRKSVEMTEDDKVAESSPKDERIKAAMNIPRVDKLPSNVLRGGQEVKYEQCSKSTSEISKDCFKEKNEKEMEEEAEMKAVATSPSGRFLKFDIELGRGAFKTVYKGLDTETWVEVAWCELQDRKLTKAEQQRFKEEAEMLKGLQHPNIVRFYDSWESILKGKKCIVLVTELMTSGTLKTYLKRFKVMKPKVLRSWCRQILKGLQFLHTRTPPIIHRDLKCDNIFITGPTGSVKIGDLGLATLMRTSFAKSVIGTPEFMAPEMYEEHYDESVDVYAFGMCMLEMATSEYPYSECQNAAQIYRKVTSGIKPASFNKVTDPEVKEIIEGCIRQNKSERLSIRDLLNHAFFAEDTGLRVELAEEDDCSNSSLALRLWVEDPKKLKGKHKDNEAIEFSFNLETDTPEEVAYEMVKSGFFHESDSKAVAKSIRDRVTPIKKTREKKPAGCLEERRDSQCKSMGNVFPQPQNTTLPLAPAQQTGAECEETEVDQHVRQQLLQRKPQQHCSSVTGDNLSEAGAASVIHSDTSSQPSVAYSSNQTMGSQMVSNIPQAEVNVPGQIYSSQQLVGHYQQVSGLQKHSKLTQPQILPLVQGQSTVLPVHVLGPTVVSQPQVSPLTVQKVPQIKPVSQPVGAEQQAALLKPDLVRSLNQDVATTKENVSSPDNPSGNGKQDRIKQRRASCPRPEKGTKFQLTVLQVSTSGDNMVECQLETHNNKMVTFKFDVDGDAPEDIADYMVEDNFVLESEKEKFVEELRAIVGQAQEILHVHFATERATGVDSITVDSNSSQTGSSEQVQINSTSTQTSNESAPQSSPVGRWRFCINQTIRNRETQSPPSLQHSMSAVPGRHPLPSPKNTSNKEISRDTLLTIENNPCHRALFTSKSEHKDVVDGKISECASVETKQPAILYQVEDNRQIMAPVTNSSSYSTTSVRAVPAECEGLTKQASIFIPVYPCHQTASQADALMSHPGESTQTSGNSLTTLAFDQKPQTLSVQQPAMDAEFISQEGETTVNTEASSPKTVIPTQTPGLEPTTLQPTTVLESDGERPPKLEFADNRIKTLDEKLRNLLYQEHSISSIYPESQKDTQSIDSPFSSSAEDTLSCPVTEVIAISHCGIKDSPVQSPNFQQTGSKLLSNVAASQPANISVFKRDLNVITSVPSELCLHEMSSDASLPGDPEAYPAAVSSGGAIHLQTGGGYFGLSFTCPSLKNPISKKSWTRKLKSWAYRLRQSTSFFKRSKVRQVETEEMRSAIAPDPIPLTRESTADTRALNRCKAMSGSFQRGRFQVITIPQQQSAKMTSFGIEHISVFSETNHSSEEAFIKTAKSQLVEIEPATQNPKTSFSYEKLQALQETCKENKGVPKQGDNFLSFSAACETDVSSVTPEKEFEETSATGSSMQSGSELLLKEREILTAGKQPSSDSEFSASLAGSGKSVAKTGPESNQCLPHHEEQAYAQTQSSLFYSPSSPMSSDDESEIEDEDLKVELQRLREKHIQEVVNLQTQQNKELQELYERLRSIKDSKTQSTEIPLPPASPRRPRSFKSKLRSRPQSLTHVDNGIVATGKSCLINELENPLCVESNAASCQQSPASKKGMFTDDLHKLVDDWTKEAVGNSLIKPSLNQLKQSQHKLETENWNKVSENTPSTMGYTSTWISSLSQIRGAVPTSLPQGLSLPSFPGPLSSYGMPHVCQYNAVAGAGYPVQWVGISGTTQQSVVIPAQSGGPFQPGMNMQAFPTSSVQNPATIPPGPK
Tyrosine-protein kinase ABL2 (Homo sapiens), sequence (P42684 whole entry): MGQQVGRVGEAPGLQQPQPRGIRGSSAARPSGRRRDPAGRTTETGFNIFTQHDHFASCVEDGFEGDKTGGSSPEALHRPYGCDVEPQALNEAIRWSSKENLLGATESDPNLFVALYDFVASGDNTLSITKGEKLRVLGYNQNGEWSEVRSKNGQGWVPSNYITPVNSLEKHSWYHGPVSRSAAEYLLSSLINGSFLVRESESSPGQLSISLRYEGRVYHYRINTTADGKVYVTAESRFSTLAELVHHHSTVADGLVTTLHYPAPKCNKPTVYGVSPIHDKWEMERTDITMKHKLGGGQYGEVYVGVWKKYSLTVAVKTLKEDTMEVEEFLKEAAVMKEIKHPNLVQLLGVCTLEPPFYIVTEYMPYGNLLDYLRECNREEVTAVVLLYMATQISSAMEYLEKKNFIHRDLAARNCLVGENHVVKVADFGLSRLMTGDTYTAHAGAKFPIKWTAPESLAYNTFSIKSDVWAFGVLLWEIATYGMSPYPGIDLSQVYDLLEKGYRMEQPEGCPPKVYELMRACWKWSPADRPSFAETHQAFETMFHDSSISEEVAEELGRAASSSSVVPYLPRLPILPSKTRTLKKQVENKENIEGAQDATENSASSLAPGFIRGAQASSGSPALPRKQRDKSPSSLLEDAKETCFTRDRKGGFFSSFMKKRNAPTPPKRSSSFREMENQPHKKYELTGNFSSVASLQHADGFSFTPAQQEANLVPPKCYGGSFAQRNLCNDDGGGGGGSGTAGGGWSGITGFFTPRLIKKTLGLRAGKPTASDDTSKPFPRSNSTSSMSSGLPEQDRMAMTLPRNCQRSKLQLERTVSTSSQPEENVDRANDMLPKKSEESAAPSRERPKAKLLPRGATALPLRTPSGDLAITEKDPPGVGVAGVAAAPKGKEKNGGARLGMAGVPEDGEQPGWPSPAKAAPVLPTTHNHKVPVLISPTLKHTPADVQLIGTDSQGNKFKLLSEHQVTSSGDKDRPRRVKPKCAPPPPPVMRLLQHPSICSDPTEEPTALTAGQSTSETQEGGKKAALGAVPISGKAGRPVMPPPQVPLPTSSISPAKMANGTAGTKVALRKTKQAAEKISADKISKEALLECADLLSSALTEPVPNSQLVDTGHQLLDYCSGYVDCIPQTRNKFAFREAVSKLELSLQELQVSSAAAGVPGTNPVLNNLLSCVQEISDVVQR
Misshapen-like kinase 1 (Homo sapiens), sequence (Q8N4C8 whole entry, looked up): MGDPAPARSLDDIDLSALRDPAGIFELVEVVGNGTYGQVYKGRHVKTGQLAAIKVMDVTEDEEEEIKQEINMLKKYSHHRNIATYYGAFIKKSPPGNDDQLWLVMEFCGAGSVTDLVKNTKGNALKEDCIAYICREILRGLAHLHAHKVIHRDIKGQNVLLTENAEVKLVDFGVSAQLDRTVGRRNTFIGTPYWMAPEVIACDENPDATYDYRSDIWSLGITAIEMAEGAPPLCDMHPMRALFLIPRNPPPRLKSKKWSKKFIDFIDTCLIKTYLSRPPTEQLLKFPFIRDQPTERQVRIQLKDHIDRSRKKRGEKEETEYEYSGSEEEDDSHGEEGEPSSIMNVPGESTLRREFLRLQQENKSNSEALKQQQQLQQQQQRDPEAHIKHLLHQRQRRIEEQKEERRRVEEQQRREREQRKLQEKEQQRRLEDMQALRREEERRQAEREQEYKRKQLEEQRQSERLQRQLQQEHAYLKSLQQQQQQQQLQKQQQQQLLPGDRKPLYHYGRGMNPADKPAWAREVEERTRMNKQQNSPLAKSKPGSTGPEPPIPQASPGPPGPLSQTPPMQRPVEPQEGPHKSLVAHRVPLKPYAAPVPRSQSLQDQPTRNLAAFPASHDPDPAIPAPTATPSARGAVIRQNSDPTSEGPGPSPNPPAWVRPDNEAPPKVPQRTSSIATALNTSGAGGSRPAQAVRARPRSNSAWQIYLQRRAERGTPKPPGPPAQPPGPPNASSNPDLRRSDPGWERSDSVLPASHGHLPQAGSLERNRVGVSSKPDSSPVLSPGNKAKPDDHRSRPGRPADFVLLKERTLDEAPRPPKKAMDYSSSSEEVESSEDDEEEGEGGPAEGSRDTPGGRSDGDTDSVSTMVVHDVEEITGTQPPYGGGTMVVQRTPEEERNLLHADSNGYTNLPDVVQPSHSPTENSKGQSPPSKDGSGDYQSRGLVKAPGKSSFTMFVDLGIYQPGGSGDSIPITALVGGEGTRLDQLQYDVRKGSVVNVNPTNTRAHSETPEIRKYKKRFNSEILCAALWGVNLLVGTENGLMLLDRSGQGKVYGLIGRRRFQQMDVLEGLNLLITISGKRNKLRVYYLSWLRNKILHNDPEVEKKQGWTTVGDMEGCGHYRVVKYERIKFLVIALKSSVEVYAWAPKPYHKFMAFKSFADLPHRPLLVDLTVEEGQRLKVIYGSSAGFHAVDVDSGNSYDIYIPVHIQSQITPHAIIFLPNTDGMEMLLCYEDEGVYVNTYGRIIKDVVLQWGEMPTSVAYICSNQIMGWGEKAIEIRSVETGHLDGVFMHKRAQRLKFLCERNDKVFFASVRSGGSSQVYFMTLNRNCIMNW

Row | Compound | inhibition [1] [%] | inhibition [2] [%] | inhibition [3] [%] | inhibition [4] [%] | inhibition [5] [%] | inhibition [6] [%] | inhibition [7] [%] | inhibition [8] [%] | inhibition [9] [%] | inhibition [10] [%]
1 | C[C@@]1(C(=O)Nc2ccc(F)nc2)CCCN1c1nc(Nc2cc(C3CC3)n[nH]2)c2cccn2n1 | -5.57 | -5.89 | 3.37 | -7.77 | -4.72 | – | – | – | – | –
2 | C[C@]1(O)C[C@@H](c2nc(-c3ccc4ccc(-c5ccccc5)nc4c3)c3c(N)nccn32)C1 | – | – | – | – | – | -4.23 | -3.76 | 9.14 | -2.76 | 2.92
